Measured values reported in patent US8796289B2 (AbbVie Inc., priority 2011, dated 2014).

Molecular target: GST-tagged-Wee1 kinase (Homo sapiens, UniProt P30291)
Test: Wee1 time-resolved fluorescence equilibrium binding assay (displacement of Oregon Green-labeled ATP-competitive kinase probe)
Conditions: not given
Experimental: Wee1 kinase was assayed using a time-resolved fluorescence equilibrium binding assay monitoring displacement of a rapidly reversible Oregon Green-labeled ATP-competitive kinase probe (N-(2-(2-(2-(4-(4-(5-chloro-4-(2-(1-hydroxycyclobutyl)thiazol-5-yl)-1H-pyrrolo[2,3-b]pyridin-2-yl)phenyl)piperazin-1-yl)ethoxy)ethoxy)ethyl)-2′,7′-difluoro-3′,6′-dihydroxy-3-oxo-3H-spiro[isobenzofuran-1,9′-xanthene]-5-carboxamide) by competitive Wee1 inhibitors.

GST-tagged-Wee1 kinase, sequence (P30291 whole entry): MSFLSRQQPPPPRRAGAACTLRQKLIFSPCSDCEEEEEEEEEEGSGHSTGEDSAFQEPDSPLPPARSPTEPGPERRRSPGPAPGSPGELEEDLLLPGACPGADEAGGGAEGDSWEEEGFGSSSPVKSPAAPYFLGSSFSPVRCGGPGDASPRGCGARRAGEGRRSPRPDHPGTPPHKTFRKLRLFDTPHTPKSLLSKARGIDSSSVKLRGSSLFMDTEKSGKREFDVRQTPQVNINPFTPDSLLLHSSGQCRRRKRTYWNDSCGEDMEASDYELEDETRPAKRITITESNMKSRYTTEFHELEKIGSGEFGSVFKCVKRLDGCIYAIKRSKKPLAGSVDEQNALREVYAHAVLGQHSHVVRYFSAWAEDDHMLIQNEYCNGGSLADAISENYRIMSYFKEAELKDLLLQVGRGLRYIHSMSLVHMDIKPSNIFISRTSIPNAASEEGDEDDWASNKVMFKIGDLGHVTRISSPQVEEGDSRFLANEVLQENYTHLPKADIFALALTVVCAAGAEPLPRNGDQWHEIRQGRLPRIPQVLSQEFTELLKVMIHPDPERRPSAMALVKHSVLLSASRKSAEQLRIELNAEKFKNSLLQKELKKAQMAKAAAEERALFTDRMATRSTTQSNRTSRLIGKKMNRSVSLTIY

| Compound | Ki [nM] |
| --- | --- |
| CN1CCN(c2ccc(Nc3ncc4c(=O)n(-c5c(Cl)cccc5Cl)nc(-c5cccc(NNc6c(Cl)cccc6Cl)n5)c4n3)cc2)CC1 [Example 76, 6-(2,6-dichlorophenyl)-8-{6-[2-(2,6-dichlorophenyl)hydrazino]pyridin-2-yl}-2-{[4-(4-methylpiperazin-1-yl)phenyl]amino}pyrimido[4,5-d]pyridazin-5(6H)-one] | 4 |
| Cn1cnc(-c2nn(-c3ncccc3Cl)c(=O)c3cnc(Nc4ccc5c(c4)CNCC54CC4)nc23)c1 [Example 352, 6-(3-chloropyridin-2-yl)-2-(2′,3′-dihydro-1′H-spiro[cyclopropane-1,4′-isoquinolin]-7′-ylamino)-8-(1-methyl-1H-imidazol-4-yl)pyrimido[4,5-d]pyridazin-5(6H)-one] | 12 |
| Cc1nn(-c2c(Cl)cccc2Cl)c(=O)c2cnc(Nc3ccc4c(c3)CN(S(N)(=O)=O)CC43CC3)nc12 [Example 436, 7′-{[6-(2,6-dichlorophenyl)-8-methyl-5-oxo-5,6-dihydropyrimido[4,5-d]pyridazin-2-yl]amino}-1′H-spiro[cyclopropane-1,4′-isoquinoline]-2′(3′H)-sulfonamide] | 0.65 |
| Cc1nn(-c2c(Cl)cncc2Cl)c(=O)c2cnc(Nc3ccc4c(c3)CN(C)CC43CC3)nc12 [Example 487, 6-(3,5-dichloropyridin-4-yl)-8-methyl-2-[(2′-methyl-2′,3′-dihydro-1′H-spiro[cyclopropane-1,4′-isoquinolin]-7′-yl)amino]pyrimido[4,5-d]pyridazin-5(6H)-one] | 0.27 |
| CC1(C)CNCc2cc(Nc3ncc4c(=O)n(CCO)nc(-c5ccccn5)c4n3)ccc21 [Example 283, 2-[(4,4-dimethyl-1,2,3,4-tetrahydroisoquinolin-7-yl)amino]-6-(2-hydroxyethyl)-8-(pyridin-2-yl)pyrimido[4,5-d]pyridazin-5(6H)-one] | 30 |
| Cc1cccc(Cl)c1-n1nc(C)c2nc(Nc3ccc(NC4CCN(C)CC4)cc3)ncc2c1=O [Example 501, 6-(2-chloro-6-methylphenyl)-8-methyl-2-({4-[(1-methylpiperidin-4-yl)amino]phenyl}amino)pyrimido[4,5-d]pyridazin-5(6H)-one] | 0.32 |
| CN1CCN(c2ccc(Nc3ncc4c(=O)n(-c5c(Cl)cccc5Cl)nc(-c5cnn(CCCl)c5)c4n3)cc2)CC1 [Example 200, 8-[1-(2-chloroethyl)-1H-pyrazol-4-yl]-6-(2,6-dichlorophenyl)-2-{[4-(4-methylpiperazin-1-yl)phenyl]amino}pyrimido[4,5-d]pyridazin-5(6H)-one] | 0.3 |
| CN1CCN(c2ccc(Nc3ncc4c(=O)n(-c5c(Cl)cccc5Cl)nc(-c5cnn(CCN6CCCCC6)c5)c4n3)cc2)CC1 [Example 213, 6-(2,6-dichlorophenyl)-2-{[4-(4-methylpiperazin-1-yl)phenyl]amino}-8-{1-[2-(piperidin-1-yl)ethyl]-1H-pyrazol-4-yl}pyrimido[4,5-d]pyridazin-5(6H)-one] | 0.6 |
| CN1CCN(c2ccc(Nc3ncc4c(=O)n(-c5c(Cl)cccc5Cl)nc(-c5ccn(CCN)n5)c4n3)cc2)CC1 [Example 235, 8-[1-(2-aminoethyl)-1H-pyrazol-3-yl]-6-(2,6-dichlorophenyl)-2-{[4-(4-methylpiperazin-1-yl)phenyl]amino}pyrimido[4,5-d]pyridazin-5(6H)-one] | 0.1 |
| COCc1nn(-c2c(Cl)cccc2Cl)c(=O)c2cnc(Nc3ccc4c(c3)CNCC43CC3)nc12 [Example 428, 6-(2,6-dichlorophenyl)-2-(2′,3′-dihydro-1′H-spiro[cyclopropane-1,4′-isoquinolin]-7′-ylamino)-8-(methoxymethyl)pyrimido[4,5-d]pyridazin-5(6H)-one] | 0.24 |
| CNC(C)c1cccc(-c2nn(-c3c(Cl)cccc3Cl)c(=O)c3cnc(Nc4ccc(N5CCN(C)CC5)cc4)nc23)c1 (stereo not drawn) [Example 186, 6-(2,6-dichlorophenyl)-8-{3-[1-(methylamino)ethyl]phenyl}-2-{[4-(4-methylpiperazin-1-yl)phenyl]amino}pyrimido[4,5-d]pyridazin-5(6H)-one] | 0.02 |
| CC(C)n1nc(-c2ccncc2)c2nc(Nc3ccc4c(c3)CN(C)CC43CC3)ncc2c1=O [Example 275, 2-[(2′-methyl-2′,3′-dihydro-1′H-spiro[cyclopropane-1,4′-isoquinolin]-7′-yl)amino]-6-(propan-2-yl)-8-(pyridin-4-yl)pyrimido[4,5-d]pyridazin-5(6H)-one] | 3.2 |
| Cn1cnc(-c2nn(-c3c(Cl)cccc3Cl)c(=O)c3cnc(Nc4ccc(N5CCNCC5)cc4)nc23)c1 [Example 340, 6-(2,6-dichlorophenyl)-8-(1-methyl-1H-imidazol-4-yl)-2-{[4-(piperazin-1-yl)phenyl]amino}pyrimido[4,5-d]pyridazin-5(6H)-one] | 0.32 |
| O=c1c2cnc(Nc3ccc(N4CCNCC4)cc3)nc2c(CO)nn1-c1c(Cl)cccc1Cl [Example 430, 6-(2,6-dichlorophenyl)-8-(hydroxymethyl)-2-{[4-(piperazin-1-yl)phenyl]amino}pyrimido[4,5-d]pyridazin-5(6H)-one] | 0.2 |
| CN1CCN(Cc2cccc(-c3nn(-c4c(Cl)cccc4Cl)c(=O)c4cnc(Nc5ccc(N6CCN(C)CC6)cc5)nc34)c2)CC1 [Example 215, 6-(2,6-dichlorophenyl)-8-{3-[(4-methylpiperazin-1-yl)methyl]phenyl}-2-{[4-(4-methylpiperazin-1-yl)phenyl]amino}pyrimido[4,5-d]pyridazin-5(6H)-one] | 0.2 |
| O=c1c2cnc(Nc3ccc(N4CCNCC4)cc3)nc2c(C(F)F)nn1-c1c(Cl)cccc1Cl [Example 405, 6-(2,6-dichlorophenyl)-8-(difluoromethyl)-2-{[4-(piperazin-1-yl)phenyl]amino}pyrimido[4,5-d]pyridazin-5(6H)-one] | 0.79 |
| CC(=O)N1CCc2ccc(Nc3ncc4c(=O)n(-c5c(Cl)cccc5Cl)nc(C(F)F)c4n3)cc2C1 [Example 477, 2-[(2-acetyl-1,2,3,4-tetrahydroisoquinolin-7-yl)amino]-6-(2,6-dichlorophenyl)-8-(difluoromethyl)pyrimido[4,5-d]pyridazin-5(6H)-one] | 0.67 |
| Cc1ccccc1-n1nc(-c2cccs2)c2nc(Nc3ccc(CN(C)C)cc3)ncc2c1=O [Example 208, 2-({4-[(dimethylamino)methyl]phenyl}amino)-6-(2-methylphenyl)-8-(thiophen-2-yl)pyrimido[4,5-d]pyridazin-5(6H)-one] | 2 |

Second part, the compound after the results:

| Ki [nM] | Compound |
| --- | --- |
| 9 | Cc1ccccc1-n1nc(C2CCCC2)c2nc(Nc3ccc(N4CCN(C)CC4)cc3)ncc2c1=O [Example 49, 8-cyclopentyl-6-(2-methylphenyl)-2-{[4-(4-methylpiperazin-1-yl)phenyl]amino}pyrimido[4,5-d]pyridazin-5(6H)-one] |
| 0.42 | CN1CCN(c2ccc(Nc3ncc4c(=O)n(-c5c(Cl)cccc5Cl)nc(CO)c4n3)cc2)CC1 [Example 431, 6-(2,6-dichlorophenyl)-8-(hydroxymethyl)-2-{[4-(4-methylpiperazin-1-yl)phenyl]amino}pyrimido[4,5-d]pyridazin-5(6H)-one] |
| 0.1 | CN1CCN(c2ccc(Nc3ncc4c(=O)n(-c5c(Cl)cccc5Cl)nc(-c5cnn(C)c5)c4n3)cc2)CC1 [Example 87, 6-(2,6-dichlorophenyl)-2-{[4-(4-methylpiperazin-1-yl)phenyl]amino}-8-(1-methyl-1H-pyrazol-4-yl)pyrimido[4,5-d]pyridazin-5(6H)-one] |
| 0.6 | Cc1ccccc1-n1nc(-c2ccccc2)c2nc(Nc3ccc(N4CCN(C(C)C)CC4)cc3)ncc2c1=O [Example 134, 2-{[4-(4-isopropylpiperazin-1-yl)phenyl]amino}-6-(2-methylphenyl)-8-phenylpyrimido[4,5-d]pyridazin-5(6H)-one] |
| 12 | CN1CCN(c2ccc(Nc3ncc4c(=O)n(-c5ccccc5Cl)nc(Cc5ccccc5)c4n3)cc2)CC1 [Example 26, 8-benzyl-6-(2-chlorophenyl)-2-{[4-(4-methylpiperazin-1-yl)phenyl]amino}pyrimido[4,5-d]pyridazin-5(6H)-one] |
| 58 | CN1CCN(c2ccc(Nc3ncc4c(=O)n(C5CCC5)nc(-c5ccncc5)c4n3)cc2)CC1 [Example 282, 6-cyclobutyl-2-{[4-(4-methylpiperazin-1-yl)phenyl]amino}-8-(pyridin-4-yl)pyrimido[4,5-d]pyridazin-5(6H)-one] |
| 370 | CN1CCN(c2ccc(Nc3ncc4c(=O)n(CCC#N)nc(CCc5ccccc5)c4n3)cc2)CC1 [Example 8, 3-[2-{[4-(4-methylpiperazin-1-yl)phenyl]amino}-5-oxo-8-(2-phenylethyl)pyrimido[4,5-d]pyridazin-6(5H)-yl]propanenitrile] |
| 700 | C=CCn1nc(Cc2ccccc2)c2nc(Nc3ccc(N4CCN(C)CC4)cc3)ncc2c1=O [Example 22] |
| 0.2 | CN1CCN(c2ccc(Nc3ncc4c(=O)n(-c5ccccc5Cl)nc(-c5ccsc5)c4n3)cc2)CC1 [Example 96, 6-(2-chlorophenyl)-2-{[4-(4-methylpiperazin-1-yl)phenyl]amino}-8-(3-thienyl)pyrimido[4,5-d]pyridazin-5(6H)-one] |
| 5 | C=CCn1nc(-c2cccc(OC)c2)c2nc(Nc3ccc(N4CCN(C)CC4)cc3)ncc2c1=O [Example 63, 6-allyl-8-(3-methoxyphenyl)-2-{[4-(4-methylpiperazin-1-yl)phenyl]amino}pyrimido[4,5-d]pyridazin-5(6H)-one] |
| 100 | CN1CCN(c2ccc(Nc3ncc4c(=O)n(-c5ccccn5)nc(C5CC(F)(F)C5)c4n3)cc2)CC1 [Example 197, 8-(3,3-difluorocyclobutyl)-2-{[4-(4-methylpiperazin-1-yl)phenyl]amino}-6-(pyridin-2-yl)pyrimido[4,5-d]pyridazin-5(6H)-one] |

Same assay, conditions: read-out: Wee-1 inhibition Ki

| Compound | Ki [nM] |
| --- | --- |
| 6-(2,6-dichlorocyclohexa-1,5-dien-1-yl)-2-[(3-{[2-(dimethylamino)ethyl]amino}phenyl)amino]-8-methylpyrimido[4,5-d]pyridazin-5(6H)-one [Example 514] | 0.41 |
